Four substances from patent US12201679B2, “Epitope-targeted peptide immunostimulants” (priority 2019, dated 2025) can be followed below.

Holding throughout (assay type): cell-based, Klebsiella pneumoniae
The test system of experiment [1] is K. pneumoniae cells (strain BAA 1705). The experiment in a line: Gentamicin protection assay: phagocytosis and opsonophagocytic killing (OPK) by macrophages. Particulars: for phagocytosis at 1 h, AR-PCC only (no anti-DNP): control samples; for colony counts at 1 h, EPI plus anti-DNP antibody: 5 μM AR-PCC, murine BMDMs. As to the method: It also tested whether DNP-conjugated EPIs could promote the opsonophagocytic killing (OPK) of K. pneumoniae by macrophages. This was tested by using an OPK assay. Briefly, K. pneumoniae cells were treated with EPI and then anti-DNP antibody before being exposed to macrophages for either 6 or 24 hours. During this incubation period, macrophages that recognize K. pneumoniae cells will phagocytose them, and phagocytosed bacteria will remain viable for up to 6 hours, but within 24 hours are rendered inviable by OPK. Thus, macrophages were isolated after 6 and 24 hours of incubation with K. pneumoniae, lysed them, and plated and grew the lysate, which yielded bacterial colonies that reflect the phagocytosis (at 6 hrs) or OPK (at 24 hrs) of bacteria.
Given that cy(LLFFF)-DNP (SEQ ID NO:5) recruits antibodies to K. pneumoniae surfaces, it was expected that K. pneumoniae opsonized in this manner would be more susceptible to phagocytosis by macrophages. AR-PCC-driven phagocytosis and OPK were quantified by a gentamicin protection assay, as depicted in FIG. 7A. For this assay, K. pneumoniae cells (strain BAA 1705) were treated with cy(LLFFF)-DNP (SEQ ID NO:5), opsonized by anti-DNP antibodies, and then incubated with murine bone-marrow-derived macrophages (BMDMs). BMDMs were subsequently exposed to a solution containing gentamicin, to which K. pneumoniae strain BAA 1705 is susceptible, to kill any extracellular bacteria. Phagocytosed bacteria remain viable inside BMDMs for at least 1 h, yet are rendered inviable after 24 h by OPK (FIG. 13). Macrophages harvested at 1 h and 24 h were lysed and plated to generate bacterial colonies, which were enumerated to quantify phagocytosis and OPK.
Klebsiella pneumoniae BAA1705 was treated with DNP-PCCs followed by incubation with anti-DNP antibody, as described above in the “Cell-Based ELISAs” section. These opsonized bacteria were then used to infect BMDMs at a multiplicity of infection of 50 for 0.5 h at 37° C. Bacteria were then washed by using RPMI 1640 Media and BMDMs were left in cell culture medium containing gentamicin (100 μg/ml). After 1 h and 24 h BMDMs were washed to remove gentamicin and intracellular bacteria were harvested by lysing BMDMs in RPMI media containing 0.2% Triton X 100. Bacterial CFUs were enumerated by plating onto LB agar. Bacterial counts at 1 h indicated the degree of opsonization while those at 24 h served as a measure of microbicidal activity of macrophages. For these measurements, anti-MrkA antibody and K. pneumoniae antiserum were used at dilutions of 5 μg/mL each.

The subject of experiment [2] is K. pneumoniae (strains BAA 1705 & 2146). The experiment in a line: Whole-cell ELISA, biotinylated PCC, multidrug-resistant K. pneumoniae. The following applies: biotinylated PCC at 5 μM, FIG. 5C. The procedure: Detection of the binding of biotinylated PCCs to bacterial surface was performed as follows. 10^8 bacteria from a culture grown overnight were used for each test. […] After washing thrice with PBS to remove unbound PCCs, bacteria were incubated with Streptavidin-HRP (1:1000) for 1 h at 37° C. Bacteria were washed thoroughly and the TMB reagent was added until visible coloration was observed. The reaction was quenched using 2N H2SO4 and absorbance was measured at 450 nm.

Experiment [3] deals with K. pneumoniae cells (strain BAA 2146). Kind of experiment: Flow cytometry, recruitment of fluorescent anti-DNP antibodies. The following applies: cy(LLFFF)-DNP 1 or 5 μM; cy(HNGPT) 50 μM; plus fluorescent anti-DNP.
Experimental: To test this, cells were incubated with DNP-conjugated EPIs and then fluorescently labeled anti-DNP antibody (Alexafluor488), and subsequently quantified the fluorescence of cells by using flow cytometry.
Cytometry measurements were gated for single cells, and each distribution comprises >18,000 cells.
Cytometry measurements were used to quantify AR-PCC-driven opsonization and opsonophagocytic killing of K. pneumoniae cells. For these measurements, K. pneumoniae cells were cultured in G-CAA medium overnight, washed, incubated with DNP-tagged AR-PCC at a desired concentration, washed, incubated with anti-DNP antibody conjugated with Alexafluor488, washed, then resuspended in PBS media. The samples were stored at 4° C. for 2 d before cytometry measurements were performed. The cytometer was calibrated by using Rainbow fluorescent beads (3.5 μm diameter) 3.5 m from BD (559123), which aided identification of single K. pneumoniae cells in subsequent measurements. Samples were excited with 488 nm light and the fluorescence emission at 530 nm was measured. Sample with no Alexaflour488 stain was used as fluorescent minus one (FMO) control for gating of DNP+ population. FACS data was analyzed on FlowJo v10 software, and the resulting histograms each include fluorescence data from >18,000 cells for strain BAA 2146 (FIG. 4B) and >4,000 cells for strain BAA 1705 (data not shown).

Several values for one entry are separate records, joined by “and”; a condition that tells them apart may be missing. Identical values can stand only once. Entries after “also recorded” stand apart in the source; their conditions may differ. Ends that are not written are not given here.

Regarding “cy(HNGPT) (not fully specified (bridges); printed as cy(HNGPT); also: cyclic, closure not given here) [reference compound]”, in experiment [1] (6 hrs), the “CFU, DNP-conjugated EPI plus anti-DNP, macrophages harvested at 6 hrs” value is listed as “almost identical CFU count” and the “cell counts, DNP-conjugated EPI only (no antibody), macrophages harvested at 6 hrs” value is on record as ~35,000. Also, in experiment [2], the “whole-cell ELISA signal, K. pneumoniae BAA 1705 and BAA 2146” value is “comparably lower signal; also recorded: no or minimal binding above baseline”. Further, the “fluorescence of cells” value in experiment [3] is “Slightly greater fluorescence”.

As for “cy(LLFFA)-DNP (not fully specified (bridges); printed as cy(LLFFA)-DNP; also: DNP label)”, the “phagocytosis at 1 h, DNP-tagged AR-PCC plus anti-DNP (words)” value in experiment [1] (1 h, FIG. 7B) is given as “None of these treatments elicited phagocytosis above basal levels”. The “phagocytosis at 1 h, AR-PCC only (no anti-DNP)” value (“phagocytosis … (no anti-DNP)” below) in experiment [1] (1 h) is given as “None of these treatments elicited phagocytosis above basal levels”.

Consider “cy(LLFFF)+R6-DNP (LLFFFRRRRRR; not fully specified (C-terminus); printed as cy(LLFFF)+R6-DNP; also: cyclic over residues 1-5, ring closure not given here)”, for which, in experiment [1] (1 h), the “colony counts at 1 h, EPI plus anti-DNP antibody” value was 85,000 CFU and the “phagocytosis … (no anti-DNP)” value is “None of these treatments elicited phagocytosis above basal levels”.

Consider “cy(LLFFF)-DNP (cyclo(LLFFF); also: DNP label)”, for which, in experiment [1] (1 h), the “colony counts at 1 h, EPI plus anti-DNP antibody” value is 89,000 CFU and 85,000 CFU; the “phagocytosis … (no anti-DNP)” value is “None of these treatments elicited phagocytosis above basal levels”. Moreover, the “level of phagocytosis lower than K. pneumoniae antiserum and anti-MrkA treatment” value in experiment [1] (plus anti-DNP, 1 h) was “about 15%”. Also, in experiment [3], the “fluorescence of cells” value is on record as “much higher fluorescence”.
